Source: the supplement of paper PMC11616607

Assays:
Test in all cases: drug sensitivity score (DSS) from 5-point dose-response viability curve (DSS (area-under-curve based score)); higher = more sensitive (stronger growth inhibition or killing); extreme values may be limits of the assay
Conditions in all cases: exposure time: 72 h; concentration range: 5 concentrations over 10,000-fold range
OVCAR8 = system: OVCAR8
Outline: (§1)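 For the drug sensitivity score, obtained per cell line and drug in Breeze software, larger values mean greater sensitivity. No response corresponds to a score of zero. Ovarian cancer and normal ovarian cells were seeded at 1,500 per well into 384-well plates already holding acoustically dispensed drugs (Echo 550, DMSO or water, five concentrations over a 10,000-fold range) and incubated 3 days at 37°C, 5% CO2. CellTiter-Glo luminescence on a PHERAstar FS gave the viability readout.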

HOSE2C = system: HOSE2C
Outline: as §1

COV362 = system: COV362
Outline: as §1

JHOS2 = system: JHOS2
Outline: as §1

Kuramochi = system: Kuramochi
Outline: as §1

OVCAR5 = system: OVCAR5
Outline: as §1

COV318 = system: COV318
Outline: as §1

HOSE1C = system: HOSE1C
Outline: as §1

CAOV3 = system: CAOV3
Outline: as §1

Ovsaho = system: Ovsaho
Outline: as §1

OVCAR4 = system: OVCAR4
Outline: as §1

OV90 = system: OV90
Outline: as §1

SMILES: CC[C@@H]1C(=O)OC[C@@H]1Cc1cncn1C [Pilocarpine]
- drug sensitivity score (OVCAR8): 0
- drug sensitivity score (HOSE2C): 0
- drug sensitivity score (COV362): 0
- drug sensitivity score (JHOS2): 0.5
- drug sensitivity score (Kuramochi): 0
- drug sensitivity score (OVCAR5): 0
- drug sensitivity score (COV318): 0
- drug sensitivity score (HOSE1C): 0
- drug sensitivity score (CAOV3): 0
- drug sensitivity score (Ovsaho): 0
- drug sensitivity score (OVCAR4): 0
- drug sensitivity score (OV90): 0

SMILES: CC(C)Cn1cnc2c(N)nc3ccccc3c21 [Imiquimod]
- drug sensitivity score (OVCAR8): 0.1
- drug sensitivity score (HOSE2C): 0
- drug sensitivity score (COV362): 0
- drug sensitivity score (JHOS2): 0.5
- drug sensitivity score (Kuramochi): 0
- drug sensitivity score (OVCAR5): 0
- drug sensitivity score (COV318): 0
- drug sensitivity score (HOSE1C): 0
- drug sensitivity score (CAOV3): 0
- drug sensitivity score (Ovsaho): 0
- drug sensitivity score (OVCAR4): 0
- drug sensitivity score (OV90): 0

SMILES: COc1cc(Nc2c(C#N)cnc3cc(OCCCN4CCN(C)CC4)c(OC)cc23)c(Cl)cc1Cl [Bosutinib]
- drug sensitivity score (OVCAR8): 6.7
- drug sensitivity score (HOSE2C): 6.2
- drug sensitivity score (COV362): 8.5
- drug sensitivity score (JHOS2): 7
- drug sensitivity score (Kuramochi): 8.8
- drug sensitivity score (OVCAR5): 9.4
- drug sensitivity score (COV318): 2
- drug sensitivity score (HOSE1C): 6.8
- drug sensitivity score (CAOV3): 8
- drug sensitivity score (Ovsaho): 10.5
- drug sensitivity score (OVCAR4): 5.7
- drug sensitivity score (OV90): 8.7

SMILES: CC[C@]12C=CCN3CC[C@@]4(c5cc([C@@]6(C(=O)OC)C[C@@H]7C[C@@H](C(C)(F)F)CN(Cc8c6[nH]c6ccccc86)C7)c(OC)cc5N(C)[C@H]4[C@@](O)(C(=O)OC)[C@@H]1OC(C)=O)[C@@H]32 [Vinflunine]
- drug sensitivity score (OVCAR8): 4.1
- drug sensitivity score (HOSE2C): 3.6
- drug sensitivity score (COV362): 1.3
- drug sensitivity score (JHOS2): 2.4
- drug sensitivity score (Kuramochi): 1.9
- drug sensitivity score (OVCAR5): 3.4
- drug sensitivity score (COV318): 0.7
- drug sensitivity score (HOSE1C): 3.6
- drug sensitivity score (CAOV3): 4.3
- drug sensitivity score (Ovsaho): 1.8
- drug sensitivity score (OVCAR4): 2.1
- drug sensitivity score (OV90): 3.3

SMILES: COc1cc(Br)c(Nc2nc(-c3c(C)nc4ncccn34)cs2)c(Br)c1 [PTC-209]
- drug sensitivity score (OVCAR8): 4.5
- drug sensitivity score (HOSE2C): 9.6
- drug sensitivity score (COV362): 0.6
- drug sensitivity score (JHOS2): 6.2
- drug sensitivity score (Kuramochi): 2.7
- drug sensitivity score (OVCAR5): 3.5
- drug sensitivity score (COV318): 2.1
- drug sensitivity score (HOSE1C): 8.1
- drug sensitivity score (CAOV3): 4.1
- drug sensitivity score (Ovsaho): 1.3
- drug sensitivity score (OVCAR4): 3.1
- drug sensitivity score (OV90): 9.8

SMILES: Cc1nc(-c2cn3c(n2)-c2ccc(-c4cnn(C(C)(C)C(N)=O)c4)cc2OCC3)n(C(C)C)n1 [Taselisib]
- drug sensitivity score (OVCAR8): 2.1
- drug sensitivity score (HOSE2C): 7.8
- drug sensitivity score (COV362): 1.9
- drug sensitivity score (JHOS2): 3.3
- drug sensitivity score (Kuramochi): 4.1
- drug sensitivity score (OVCAR5): 7.9
- drug sensitivity score (COV318): 2.5
- drug sensitivity score (HOSE1C): 4.5
- drug sensitivity score (CAOV3): 7.5
- drug sensitivity score (Ovsaho): 3.1
- drug sensitivity score (OVCAR4): 2.1
- drug sensitivity score (OV90): 0.3

SMILES: COC[C@H](NC(=O)c1cnc(C)s1)C(=O)N[C@@H](COC)C(=O)N[C@@H](Cc1ccccc1)C(=O)[C@@]1(C)CO1 [Oprozomib]
- drug sensitivity score (OVCAR8): 12.6
- drug sensitivity score (HOSE2C): 17.1
- drug sensitivity score (COV362): 15.1
- drug sensitivity score (JHOS2): 23.9
- drug sensitivity score (Kuramochi): 9.6
- drug sensitivity score (OVCAR5): 15.4
- drug sensitivity score (COV318): 24.5
- drug sensitivity score (HOSE1C): 18.8
- drug sensitivity score (CAOV3): 21.7
- drug sensitivity score (Ovsaho): 16.1
- drug sensitivity score (OVCAR4): 15.2
- drug sensitivity score (OV90): 21.4

SMILES: O=C(NC[C@H](O)CN1CCc2ccccc2C1)c1cc(NC2COC2)ncn1
- drug sensitivity score (OVCAR8): 0
- drug sensitivity score (HOSE2C): 0
- drug sensitivity score (COV362): 0
- drug sensitivity score (JHOS2): 0.7
- drug sensitivity score (Kuramochi): 0.4
- drug sensitivity score (OVCAR5): 0.8
- drug sensitivity score (COV318): 0.2
- drug sensitivity score (HOSE1C): 0
- drug sensitivity score (CAOV3): 0
- drug sensitivity score (Ovsaho): 0
- drug sensitivity score (OVCAR4): 2
- drug sensitivity score (OV90): 0

SMILES: COc1ccc(C[C@H](NC(=O)[C@H](C)NC(=O)CN2CCOCC2)C(=O)N[C@@H](Cc2ccccc2)C(=O)C2(C)CO2)cc1 (stereo in doubt) [ONX-0914]
- drug sensitivity score (OVCAR8): 17.7
- drug sensitivity score (HOSE2C): 21.3
- drug sensitivity score (COV362): 17.9
- drug sensitivity score (JHOS2): 16.1
- drug sensitivity score (Kuramochi): 11.6
- drug sensitivity score (OVCAR5): 18.2
- drug sensitivity score (COV318): 12.3
- drug sensitivity score (HOSE1C): 27.9
- drug sensitivity score (CAOV3): 17.9
- drug sensitivity score (Ovsaho): 19.6
- drug sensitivity score (OVCAR4): 17.1
- drug sensitivity score (OV90): 19.8

SMILES: CCN(CC)CCNC(=O)c1c(C)[nH]c(/C=C2\C(=O)Nc3ccc(-c4csc(-c5ccccc5)n4)cc32)c1C [Amcasertib]
- drug sensitivity score (OVCAR8): 0.6
- drug sensitivity score (HOSE2C): 5.2
- drug sensitivity score (COV362): 0.5
- drug sensitivity score (JHOS2): 0
- drug sensitivity score (Kuramochi): 0
- drug sensitivity score (OVCAR5): 1.3
- drug sensitivity score (COV318): 8.8
- drug sensitivity score (HOSE1C): 8.8
- drug sensitivity score (CAOV3): 0
- drug sensitivity score (Ovsaho): 0
- drug sensitivity score (OVCAR4): 0.8
- drug sensitivity score (OV90): 0

SMILES: Cc1cnc(NC(=O)Nc2cc(Br)c(C)cc2OC[C@@H]2CNCCO2)cn1 [Rabusertib]
- drug sensitivity score (OVCAR8): 0
- drug sensitivity score (HOSE2C): 2
- drug sensitivity score (COV362): 0.2
- drug sensitivity score (JHOS2): 0
- drug sensitivity score (Kuramochi): 0.1
- drug sensitivity score (OVCAR5): 0.1
- drug sensitivity score (COV318): 0.2
- drug sensitivity score (HOSE1C): 1.8
- drug sensitivity score (CAOV3): 0.1
- drug sensitivity score (Ovsaho): 0
- drug sensitivity score (OVCAR4): 1
- drug sensitivity score (OV90): 1.6

SMILES: CCN(c1cc(-c2ccc(CN3CCOCC3)cc2)cc(C(=O)NCc2c(C)cc(C)[nH]c2=O)c1C)C1CCOCC1 [Tazemetostat]
- drug sensitivity score (OVCAR8): 0
- drug sensitivity score (HOSE2C): 0
- drug sensitivity score (COV362): 2.3
- drug sensitivity score (JHOS2): 2.1
- drug sensitivity score (Kuramochi): 0
- drug sensitivity score (OVCAR5): 0
- drug sensitivity score (COV318): 0
- drug sensitivity score (HOSE1C): 0
- drug sensitivity score (CAOV3): 0
- drug sensitivity score (Ovsaho): 0
- drug sensitivity score (OVCAR4): 0.1
- drug sensitivity score (OV90): 0

SMILES: CNC(=O)c1ccc(N2C(=S)N(c3ccc(C#N)c(C(F)(F)F)c3)C(=O)C2(C)C)cc1F [Enzalutamide]
- drug sensitivity score (OVCAR8): 0
- drug sensitivity score (HOSE2C): 0
- drug sensitivity score (COV362): 0
- drug sensitivity score (JHOS2): 0
- drug sensitivity score (Kuramochi): 1.7
- drug sensitivity score (OVCAR5): 0.2
- drug sensitivity score (COV318): 0.4
- drug sensitivity score (HOSE1C): 0
- drug sensitivity score (CAOV3): 0
- drug sensitivity score (Ovsaho): 2.3
- drug sensitivity score (OVCAR4): 0.1
- drug sensitivity score (OV90): 0
